Data on one compound can be found in patent EP4512427A1, “ANTIBODY-DRUG CONJUGATES BASED ON MOLECULAR GLUE DEGRADERS AND USES THEREOF” (Mablink Bioscience, priority 2023, dated 2025).

The structures appear in SMILES notation. Entries after “also recorded” stand apart in the source; their conditions may differ.

The target in one data set is T1, BCRP (Homo sapiens, UniProt Q9UNQ0).
T1 construct: host or cells: MDCK-BCRP (Preadyport)
T1 sequence (Q9UNQ0 1-655): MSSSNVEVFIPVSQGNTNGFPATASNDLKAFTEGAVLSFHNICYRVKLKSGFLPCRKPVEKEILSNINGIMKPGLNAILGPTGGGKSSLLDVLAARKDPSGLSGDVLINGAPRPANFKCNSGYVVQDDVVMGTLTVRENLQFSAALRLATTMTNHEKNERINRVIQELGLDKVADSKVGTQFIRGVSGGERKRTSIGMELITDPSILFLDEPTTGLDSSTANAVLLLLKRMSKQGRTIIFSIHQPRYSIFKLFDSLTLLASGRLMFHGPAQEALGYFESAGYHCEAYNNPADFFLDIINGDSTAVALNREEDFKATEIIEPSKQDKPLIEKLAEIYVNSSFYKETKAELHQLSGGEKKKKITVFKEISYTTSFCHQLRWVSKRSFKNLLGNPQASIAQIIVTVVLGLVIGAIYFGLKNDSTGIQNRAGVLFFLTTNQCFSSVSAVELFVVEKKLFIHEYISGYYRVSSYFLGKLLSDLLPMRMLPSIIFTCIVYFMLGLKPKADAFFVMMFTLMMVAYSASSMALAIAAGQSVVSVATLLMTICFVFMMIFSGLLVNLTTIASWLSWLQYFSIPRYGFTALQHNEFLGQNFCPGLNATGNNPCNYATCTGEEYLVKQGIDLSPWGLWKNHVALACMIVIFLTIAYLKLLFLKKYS
Kind of data set: BCRP efflux substrate assay in MDCK-BCRP. Type of data set: in vitro ADME. The settings on record: dog, pH 7.4, MDCK-BCRP. The procedure:
(§1) MDR1 and BCRP efflux substrate assays were conducted in MDCK-MDR1 and MDCK-BCRP in vitro models (Preadyport™, Solvo Biotech) at Symeres (Nederland). Compound of the invention (donor well concentration of 5µM) were incubated in cell monolayer 24-transwell Preadyport system, using Preadyport recommended pH 7.4 assay buffer (donor and receiver wells). After 60 min of incubation (no shaking), samples are collected and suspended into triple volume of 66% cold acetonitrile. Samples are stored at -20°C until thawed, centrifuged and analyzed by LC-MS. Quinidine was used a positive control for the MDR1 assay, and prazosin was used as a positive control for the BCRP assay. Exatecan was used as a control, known not to be an MDR1 substrate. Residual DMSO content from compounds stock solutions was below 1% (v/v). The assay was performed in duplicate. The quantification of test compounds in donor or receptor compartment is conducted using relative LC/MS peak areas (samples of initial incubation solutions are used as a single point calibrator), without any spiked standard samples. The data is used for estimating apparent permeability (Papp) and calculation of efflux ratio.

Data set [1] concerns cancerous human cell lines. Nature of the data set: In vitro cytotoxicity assay (MTT), side-by-side comparisons over the cell line panel. Type of data set: cell-based. The settings on record: side-by-side comparison (Figures 1-3, Table 3), result in words. The procedure: In vitro cytotoxicity of compounds of the disclosure was assessed on several cancerous human cell lines. Cells were plated in 96-well plates at an appropriate density depending on the cell line (between 1000 and 10 000 cells/well in 100µL of appropriate culture media) and incubated at 37°C for 24 hours. Serial dilutions of the tested compound previously dissolved in culture media (50µL) were added, and incubation was carried at 37°C out for 6 days. MTT (5mg/mL in PBS, 20µL, Sigma-Aldrich) was added into the wells, and incubation was continued for 1 to 4 hours at 37°C. Culture media was then carefully removed, and well content was homogeneously dissolved with acidified isopropanol. Absorbance values were measured on a microplate reader using a wavelength of 570 nm (with a reference wavelength of 690 nm). The IC50 concentration values compared to untreated control cells were determined using inhibition dose response curve fitting (GraphPad Prism 9). Exatecan mesylate (cat#HY-13631A) and CR8 (CAS# 294646-77-8; cat#HY-18340) were purchased from MedChemExpress (China).

In another data set the target is T2, MDR1 (Homo sapiens, UniProt P08183).
T2 construct: host or cells: MDCK-MDR1 (Preadyport)
Kind of data set: MDR1 efflux substrate assay in MDCK-MDR1. The settings on record: dog, MDCK-MDR1, 5µM, 60 min, pH 7.4. The class given is in vitro ADME. The procedure:
as §1

T2 sequence (P08183 whole entry): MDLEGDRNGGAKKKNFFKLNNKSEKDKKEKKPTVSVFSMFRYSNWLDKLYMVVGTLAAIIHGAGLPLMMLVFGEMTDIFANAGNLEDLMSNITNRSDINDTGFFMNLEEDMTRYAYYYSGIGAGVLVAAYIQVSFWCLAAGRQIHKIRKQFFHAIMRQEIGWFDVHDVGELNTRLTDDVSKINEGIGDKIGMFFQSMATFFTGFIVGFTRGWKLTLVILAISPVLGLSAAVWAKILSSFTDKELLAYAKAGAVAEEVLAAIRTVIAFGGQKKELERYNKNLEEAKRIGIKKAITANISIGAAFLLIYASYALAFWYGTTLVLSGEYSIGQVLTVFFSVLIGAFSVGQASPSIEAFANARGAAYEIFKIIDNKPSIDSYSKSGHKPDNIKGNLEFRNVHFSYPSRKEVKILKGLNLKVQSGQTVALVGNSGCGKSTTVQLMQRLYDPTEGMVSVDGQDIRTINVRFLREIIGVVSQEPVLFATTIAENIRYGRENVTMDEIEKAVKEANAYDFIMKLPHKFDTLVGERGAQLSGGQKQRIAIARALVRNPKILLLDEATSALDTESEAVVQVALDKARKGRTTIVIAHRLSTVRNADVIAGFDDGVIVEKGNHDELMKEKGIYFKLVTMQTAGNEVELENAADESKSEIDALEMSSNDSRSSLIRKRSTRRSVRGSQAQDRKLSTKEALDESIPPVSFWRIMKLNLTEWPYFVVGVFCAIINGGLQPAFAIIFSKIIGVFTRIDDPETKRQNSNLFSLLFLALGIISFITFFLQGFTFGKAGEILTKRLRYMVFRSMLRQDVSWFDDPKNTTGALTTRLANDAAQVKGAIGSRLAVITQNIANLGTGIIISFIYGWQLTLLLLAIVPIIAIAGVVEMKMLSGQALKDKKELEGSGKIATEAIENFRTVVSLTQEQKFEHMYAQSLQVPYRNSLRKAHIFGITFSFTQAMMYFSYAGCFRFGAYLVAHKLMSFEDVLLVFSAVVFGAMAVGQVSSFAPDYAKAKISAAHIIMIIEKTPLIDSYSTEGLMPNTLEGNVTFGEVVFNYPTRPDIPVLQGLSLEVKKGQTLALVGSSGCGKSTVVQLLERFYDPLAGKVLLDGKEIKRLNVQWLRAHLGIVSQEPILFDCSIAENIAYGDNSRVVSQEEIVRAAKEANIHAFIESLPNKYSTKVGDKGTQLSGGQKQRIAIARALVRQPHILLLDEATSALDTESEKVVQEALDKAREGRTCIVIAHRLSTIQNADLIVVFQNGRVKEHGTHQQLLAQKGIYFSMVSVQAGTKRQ

As to `N[C@H]1CC[C@H](Nc2nc(NCc3ccc(-c4ccccn4)cc3)n3ncc(Br)c3n2)CC1` [Compound 2384], at BCRP (read-out: Efflux ratio B/A), the efflux ratio at 1 h, 5 µM came to 9.24. In addition, the Papp A→B at 1 h, 5 µM on BCRP (5µM, 60 min, read-out: Papp A (donor) to B (acceptor)) was 5.49 ×10⁻⁶ cm/s; at MDR1 (read-out: Papp A (donor) to B (acceptor)), less than 0.25 ×10⁻⁶ cm/s. The Papp B→A at 1 h, 5 µM on BCRP (5µM, 60 min, read-out: Papp B (acceptor) to A (donor)) is 50.7 ×10⁻⁶ cm/s; at MDR1 (read-out: Papp B (acceptor) to A (donor)), 36.9 ×10⁻⁶ cm/s. The “in vitro cytotoxicity potency” value in data set [1] is listed as “more potent compared to its isopropyl counterpart; also recorded: drastically improved low nanomolar potencies”.
